In ChEMBL document CHEMBL3734712, “Sanguiin H6 suppresses TGF-β induction of the epithelial-mesenchymal transition and inhibits migration and invasion in A549 lung cancer” (Bioorg Med Chem Lett, 2015):
The source made the active and inactive calls. No cut-off for these calls is given here.

Key:
A549 [1] = test: Cytotoxicity against human A549 cells assessed as cell viability at 50 to 100 uM after 48 hrs by WST-8 staining based CCK8 assay; conditions: a549, 48 h
A549 [2] = test: Inhibition of TGF-beta1 induced epithelial-mesenchymal transition in human A549 cells assessed as morphological changes at 5 to 10 uM preincubated for 2 hrs followed by TGF-beta1 addition; assay type: functional, cell-based
A549 [3] = test: Cytotoxicity against human A549 cells assessed as cell viability at 1 to 25 uM after 48 hrs by WST-8 staining based CCK8 assay; conditions: a549, 48 h
A549 [4] = test: Inhibition of TGF-beta1 induced epithelial-mesenchymal transition in human A549 cells assessed as reduction in phosphorylated SMAD2 level preincubated for 2 hrs followed by TGF-beta1 addition by Western blot method; assay type: functional, cell-based
A549 [5] = test: Inhibition of TGF-beta1 induced epithelial-mesenchymal transition in human A549 cells assessed as reduction in phosphorylated SMAD3 level preincubated for 2 hrs followed by TGF-beta1 addition by Western blot method; assay type: functional, cell-based
A549 [6] = test: Inhibition of TGF-beta1 response promoter transactivation mediated SMAD2 and SMAD3 phosphorylation in human A549 cells at 5 to 10 uM preincubated for 2 hrs by dual luciferase reporter assay; assay type: functional, cell-based
A549 [7] = test: Inhibition of TGF-beta1 induced epithelial-mesenchymal transition in human A549 cells assessed as reduction in nuclear SMAD2 level preincubated for 2 hrs by Western blot method; assay type: functional, cell-based
A549 [8] = test: Inhibition of TGF-beta1 induced epithelial-mesenchymal transition in human A549 cells assessed as reduction in nuclear phosphorylated SMAD2 level preincubated for 2 hrs by Western blot method; assay type: functional, cell-based
A549 [9] = test: Inhibition of TGF-beta1 induced epithelial-mesenchymal transition in human A549 cells assessed as reduction in nuclear SMAD3 level preincubated for 2 hrs by Western blot method; assay type: functional, cell-based
A549 [10] = test: Inhibition of TGF-beta1 induced epithelial-mesenchymal transition in human A549 cells assessed as reduction in nuclear phosphorylated SMAD3 level preincubated for 2 hrs by Western blot method; assay type: functional, cell-based
A549 [11] = test: Inhibition of TGF-beta1-induced downregulation of epithelial marker E-cadherin expression in human A549 cells at 5 to 10 uM preincubated for 2 hrs by Western blot method; assay type: functional, cell-based
A549 [12] = test: Inhibition of TGF-beta1-induced upregulation of mesenchymal marker N-cadherin expression in human A549 cells at 5 to 10 uM preincubated for 2 hrs by Western blot method; assay type: functional, cell-based
A549 [13] = test: Inhibition of TGF-beta1-induced upregulation of Snail protein expression in human A549 cells preincubated for 2 hrs by Western blot method; assay type: functional, cell-based
A549 [14] = test: Inhibition of TGF-beta1-induced […] Snail promoter activity in human A549 cells at 5 to 10 uM preincubated for 2 hrs by dual luciferase reporter assay; assay type: functional, cell-based
A549 [15] = test: Inhibition of TGF-beta1-induced plasminogen activator inhibitor type 1 expression in human A549 cells assessed at 5 to 10 uM preincubated for 2 hrs by Western blot method; assay type: functional, cell-based
A549 [16] = test: Inhibition of TGF-beta1 induced epithelial-mesenchymal transition in human A549 cells assessed as reduction in ITGA5 level AT 5 AND 10 uM incubated for 48 hrs by qRT-PCR method; assay type: functional, cell-based
A549 [17] = test: Inhibition of TGF-beta1 induced epithelial-mesenchymal transition in human A549 cells assessed as reduction in CALD1 level AT 5 AND 10 uM incubated for 48 hrs by qRT-PCR method; assay type: functional, cell-based
A549 [18] = test: Inhibition of TGF-beta1 induced epithelial-mesenchymal transition in human A549 cells assessed as reduction in […] level AT 5 AND 10 uM incubated for 48 hrs by qRT-PCR method; assay type: functional, cell-based
A549 [19] = test: Inhibition of TGF-beta1 induced epithelial-mesenchymal transition in human A549 cells assessed as reduction in CDH2 level AT 5 AND 10 uM incubated for 48 hrs by qRT-PCR method; assay type: functional, cell-based
A549 [20] = test: Inhibition of TGF-beta1 induced epithelial-mesenchymal transition in human A549 cells assessed as reduction in COL5A2 level AT 5 AND 10 uM incubated for 48 hrs by qRT-PCR method; assay type: functional, cell-based
A549 [21] = test: Inhibition of TGF-beta1 induced epithelial-mesenchymal transition in human A549 cells assessed as reduction in SNAI1 level AT 5 AND 10 uM incubated for 48 hrs by qRT-PCR method; assay type: functional, cell-based
A549 [22] = test: Inhibition of TGF-beta1 induced epithelial-mesenchymal transition in human A549 cells assessed as reduction in SNAI2 level AT 5 AND 10 uM incubated for 48 hrs by qRT-PCR method; assay type: functional, cell-based
A549 [23] = test: Inhibition of TGF-beta1 induced epithelial-mesenchymal transition in human A549 cells assessed as reduction in SPARC level AT 5 AND 10 uM incubated for 48 hrs by qRT-PCR method; assay type: functional, cell-based
A549 [24] = test: Inhibition of TGF-beta1 induced epithelial-mesenchymal transition in human A549 cells assessed as reduction in PAI1 level AT 5 AND 10 uM incubated for 48 hrs by qRT-PCR method; assay type: functional, cell-based
A549 [25] = test: Inhibition of TGF-beta1 induced cell migration in human A549 cells assessed as reduction in cell surface area incubated for 48 hrs by wound healing assay; assay type: functional, cell-based
A549 [26] = test: Inhibition of TGF-beta1 stimulated invasion in human A549 cells at 5 to 10 uM incubated for 48 hrs by matrigel invasion assay; assay type: functional, cell-based
A549 [27] = test: Inhibition of TGF-beta1-induced matrix metalloproteinase-9 expression in human A549 cells at 5 to 10 uM preincubated for 2 hrs by Western blot method; assay type: functional, cell-based

Structure (SMILES): O=C(O[C@@H]1O[C@@H]2COC(=O)c3cc(O)c(O)c(O)c3-c3c(cc(O)c(O)c3O)C(=O)O[C@H]2[C@@H]2OC(=O)c3cc(O)c(O)c(O)c3-c3c(cc(O)c(O)c3O)C(=O)O[C@H]12)c1cc(O)c(O)c(Oc2c(O)c(O)c(O)c3c2C(=O)O[C@H]2[C@@H]4OC(=O)c5cc(O)c(O)c(O)c5-c5c(cc(O)c(O)c5O)C(=O)O[C@@H]4[C@@H](OC(=O)c4cc(O)c(O)c(O)c4)O[C@@H]2COC(=O)c2cc(O)c(O)c(O)c2-3)c1
- Activity (A549 [1]): Toxic
- inhibition (A549 [2]): Active
- Activity (A549 [3]): Non-toxic
- inhibition (A549 [4]): Dose-dependent effect
- inhibition (A549 [5]): Dose-dependent effect
- inhibition (A549 [6]): Active
- inhibition (A549 [7]): Dose-dependent effect
- inhibition (A549 [8]): Dose-dependent effect
- inhibition (A549 [9]): Dose-dependent effect
- inhibition (A549 [10]): Dose-dependent effect
- inhibition (A549 [11]): Active
- inhibition (A549 [12]): Active
- inhibition (A549 [13]): Dose-dependent effect
- inhibition (A549 [14]): Active
- inhibition (A549 [15]): Dose-dependent effect
- inhibition (A549 [16]): Active
- inhibition (A549 [17]): Active
- inhibition (A549 [18]): Active
- inhibition (A549 [19]): Active
- inhibition (A549 [20]): Active
- inhibition (A549 [21]): Active
- inhibition (A549 [22]): Active
- inhibition (A549 [23]): Active
- inhibition (A549 [24]): Active
- inhibition (A549 [25]): Dose-dependent effect
- inhibition (A549 [26]): Active
- inhibition (A549 [27]): Active
